Like-named read-outs stand apart in the source and are kept apart here.

The target of assay [1] is Escherichia coli GS (EcGS) (Escherichia coli, UniProt P0A6U8). Nature of the assay: EcGS activity, glycogen synthesis direction, absence of ADP. It counts as biochemical.
In assay [2] the target is Sucrose synthase 4 (SuSy4) (Solanum tuberosum, UniProt P10691). The assay is described as follows: SuSy4 activity, sucrose synthesis direction, absence of UDP. It counts as biochemical, Solanum tuberosum L.
Assay [3] deals with T1, Rabbit muscle GPa (RMGPa) (Oryctolagus cuniculus, UniProt P00489).
T1 sequence (P00489 1-843): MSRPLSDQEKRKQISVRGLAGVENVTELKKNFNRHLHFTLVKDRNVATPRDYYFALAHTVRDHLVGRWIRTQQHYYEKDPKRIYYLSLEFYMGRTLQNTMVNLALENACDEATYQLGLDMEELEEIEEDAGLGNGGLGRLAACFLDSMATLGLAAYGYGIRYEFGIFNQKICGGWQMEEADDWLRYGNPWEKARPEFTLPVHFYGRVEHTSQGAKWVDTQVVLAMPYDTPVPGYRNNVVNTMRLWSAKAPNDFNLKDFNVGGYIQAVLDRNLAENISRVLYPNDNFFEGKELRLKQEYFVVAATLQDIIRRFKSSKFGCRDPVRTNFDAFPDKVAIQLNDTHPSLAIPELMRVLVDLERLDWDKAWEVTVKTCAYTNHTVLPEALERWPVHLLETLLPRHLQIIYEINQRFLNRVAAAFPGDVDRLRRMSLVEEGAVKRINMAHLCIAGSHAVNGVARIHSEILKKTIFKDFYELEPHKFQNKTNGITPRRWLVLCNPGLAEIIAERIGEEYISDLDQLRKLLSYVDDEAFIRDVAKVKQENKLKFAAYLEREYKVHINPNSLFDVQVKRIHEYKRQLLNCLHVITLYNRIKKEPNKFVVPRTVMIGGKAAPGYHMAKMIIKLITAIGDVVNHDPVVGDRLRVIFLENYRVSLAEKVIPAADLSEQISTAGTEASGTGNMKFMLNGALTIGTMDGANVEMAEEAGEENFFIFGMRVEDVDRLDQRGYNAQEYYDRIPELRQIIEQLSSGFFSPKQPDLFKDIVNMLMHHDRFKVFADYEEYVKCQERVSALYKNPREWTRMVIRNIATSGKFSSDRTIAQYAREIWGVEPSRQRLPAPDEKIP
The assay is described as follows: RMGPa activity, glycogen phosphorolysis direction. Format: biochemical. To be noted: read-out: Km of RMGPa.

Assay [4] has as its system E. coli trehalose-6-phosphate synthase. As to conditions: cited from earlier work; for IC50: read-out: IC50 trehalose-6-phosphate synthase.

Chain of Escherichia coli GS (EcGS) (P0A6U8 whole entry): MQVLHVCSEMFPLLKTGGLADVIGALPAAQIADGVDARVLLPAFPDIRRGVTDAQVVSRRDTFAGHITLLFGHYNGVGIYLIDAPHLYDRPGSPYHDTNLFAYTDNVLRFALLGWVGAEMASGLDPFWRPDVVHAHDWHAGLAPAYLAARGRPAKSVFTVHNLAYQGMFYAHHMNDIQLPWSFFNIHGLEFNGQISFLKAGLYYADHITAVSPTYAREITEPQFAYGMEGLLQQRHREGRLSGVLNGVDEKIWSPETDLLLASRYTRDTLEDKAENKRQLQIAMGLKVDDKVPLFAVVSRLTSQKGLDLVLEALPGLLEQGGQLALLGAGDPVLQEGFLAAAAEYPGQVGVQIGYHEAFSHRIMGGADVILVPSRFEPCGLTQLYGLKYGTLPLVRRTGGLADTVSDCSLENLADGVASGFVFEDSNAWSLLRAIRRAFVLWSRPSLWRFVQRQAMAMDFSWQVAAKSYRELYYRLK
Chain of Sucrose synthase 4 (SuSy4) (P10691 whole entry): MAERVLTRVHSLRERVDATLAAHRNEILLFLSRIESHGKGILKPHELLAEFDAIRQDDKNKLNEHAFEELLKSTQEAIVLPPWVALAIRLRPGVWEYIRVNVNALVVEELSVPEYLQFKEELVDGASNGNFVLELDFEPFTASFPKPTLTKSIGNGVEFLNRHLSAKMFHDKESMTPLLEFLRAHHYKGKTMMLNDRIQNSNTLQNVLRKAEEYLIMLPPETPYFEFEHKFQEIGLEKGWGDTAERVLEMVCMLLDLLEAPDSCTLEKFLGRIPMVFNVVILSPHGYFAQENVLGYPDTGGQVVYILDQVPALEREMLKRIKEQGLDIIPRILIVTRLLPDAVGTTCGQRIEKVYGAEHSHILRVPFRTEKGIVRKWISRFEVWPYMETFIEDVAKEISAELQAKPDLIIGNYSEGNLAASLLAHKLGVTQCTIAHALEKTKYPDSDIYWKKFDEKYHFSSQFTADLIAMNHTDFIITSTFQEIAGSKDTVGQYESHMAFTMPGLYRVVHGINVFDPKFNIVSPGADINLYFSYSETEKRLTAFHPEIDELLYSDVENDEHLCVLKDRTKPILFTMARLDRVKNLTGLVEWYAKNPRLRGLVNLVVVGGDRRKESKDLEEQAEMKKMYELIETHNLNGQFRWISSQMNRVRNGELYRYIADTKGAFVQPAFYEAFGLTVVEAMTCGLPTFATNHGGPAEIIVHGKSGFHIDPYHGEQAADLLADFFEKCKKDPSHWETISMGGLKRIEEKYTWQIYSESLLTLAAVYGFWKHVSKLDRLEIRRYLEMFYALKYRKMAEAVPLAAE

Broadly, the Ki is a measure of affinity in units of concentration, obtained from inhibition or displacement. `Nc1ncnc2c1ncn2[C@@H]1O[C@H](COP(=O)(O)OP(=O)(O)O)[C@@H](O)[C@H]1O` [ADP]: the inhibition constant (Ki) in assay [1] (read-out: Ki EcGS, substrate ADPG) was 87 ± 6 µM. In assay [1] (with respect to ADPG), the “Type of Inhibition EcGS” value is recorded as “Competitive”.

One may read the IC50 as the concentration that inhibits the measured activity by half. As to `OC[C@H]1NC[C@@H](O)[C@@H]1O` [DAB, 1,4-dideoxy-1,4-imino-D-arabinitol], the IC50 in assay [1] was found to be 1320 ± 10 µM; in assay [2], 246.5 ± 0.1 µM.

Turning to `OC[C@@H]1NC[C@H](O)[C@H]1O` [LAB], the “Activity (%) EcGS” value in assay [1] (remaining activity, 0.5 mM inhibitor, 2 mM ADPG and 4 mg mL−1 glycogen) was 89%. In addition, the “Activity (%) SuSy4” value in assay [2] (remaining activity, 0.5 mM inhibitor, 5 mM UDPG and 30 mM fructose) was 89%.

As a reminder, the Km is the concentration of substrate that gives half-maximal velocity. As to `O=P(O)(O)O` [Pi, inorganic phosphate], the Michaelis constant (Km) in assay [3] was 1410 µM.

In the case of `O=c1ccn([C@@H]2O[C@H](COP(=O)(O)OP(=O)(O)O)[C@@H](O)[C@H]2O)c(=O)[nH]1` [UDP], the Ki in assay [2] (read-out: Ki SuSy4, substrate UDPG) is 145 ± 48 µM. In assay [2] (with respect to UDPG), the “Type of Inhibition SuSy4” value is recorded as “Competitive”.

Turning to validoxylamine-6′-phosphate, in assay [4] (0.15 mM UDP), the “improvement of IC50 by UDP” value was “ca. 100 fold”. Also, the IC50 was 41 µM in assay [4] (addition of 0.15 mM UDP) and 5300 µM in assay [4] (without UDP).

The record behind these values is publication PMC5645785 (Organic & biomolecular chemistry, 2016).
